Results: patent US9718840B2, “Condensed 5-oxazolidinone derivative” (SUMITOMO DAINIPPON PHARMA CO., LTD., priority 2014, dated 2017)

How the values were obtained:
Cynomolgus monkey plasma = assay: Species difference test: aPTT prolongation in plasma; assay type: biochemical
Procedure: (§1) The compound of Reference Example 2-6 dissolved in DMSO was added at final concentrations of 0.03 to 200 μmol/L to the plasma of each animal species prepared using 3.2% sodium citrate. The solution was incubated at 37° C. for 6 minutes. Then, an STA reagent Cephascreen (for aPTT assay; manufactured by Roche Diagnostics K.K.) was added thereto in an amount equal to the total amount of the plasma and the DMSO solution, and the mixture was further incubated for 4 minutes. Then, STA calcium chloride (manufactured by Roche Diagnostics K.K.) was added thereto in an amount equal to the total amount of the plasma and the DMSO solution, and the time required for coagulation was measured. The concentration at which the coagulation time was prolonged two times (EC2x) was calculated for each plasma.

Dog plasma = assay: as above; assay type: biochemical
Procedure: as §1

Mouse plasma = assay: as above; assay type: biochemical
Procedure: as §1

Rabbit plasma = assay: as above; assay type: biochemical
Procedure: as §1

Rat plasma = assay: as above; assay type: biochemical
Procedure: as §1

human plasma = assay: as above; assay type: biochemical
Procedure: as §1

[1] = biological target: T1, Tissue Factor (TF):Factor VIIa (FVIIa) Complex (Homo sapiens, UniProt P08709); assay: Enzyme selectivity evaluation test: TF:FVIIa complex; assay type: biochemical
T1 construct: Human FVIIa (manufactured by Enzyme Research Laboratories); purchased Enzyme Research Laboratories (FVIIa); R&D Systems, Inc. (TF)
T1 sequence (P08709 213-466 limits assumed): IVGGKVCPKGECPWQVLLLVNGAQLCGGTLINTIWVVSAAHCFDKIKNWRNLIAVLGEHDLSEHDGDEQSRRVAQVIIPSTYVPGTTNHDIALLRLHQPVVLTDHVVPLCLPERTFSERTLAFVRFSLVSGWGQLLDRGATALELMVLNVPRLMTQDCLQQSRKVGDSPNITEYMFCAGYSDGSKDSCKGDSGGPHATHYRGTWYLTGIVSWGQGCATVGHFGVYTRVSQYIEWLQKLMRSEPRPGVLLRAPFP
T1 sequence (P08709 61-212 partner limits assumed): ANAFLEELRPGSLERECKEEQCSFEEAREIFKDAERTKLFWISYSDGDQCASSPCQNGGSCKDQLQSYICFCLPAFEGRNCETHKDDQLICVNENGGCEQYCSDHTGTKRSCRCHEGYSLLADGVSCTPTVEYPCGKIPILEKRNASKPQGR
T1 sequence (P13726 33-251 partner limits assumed): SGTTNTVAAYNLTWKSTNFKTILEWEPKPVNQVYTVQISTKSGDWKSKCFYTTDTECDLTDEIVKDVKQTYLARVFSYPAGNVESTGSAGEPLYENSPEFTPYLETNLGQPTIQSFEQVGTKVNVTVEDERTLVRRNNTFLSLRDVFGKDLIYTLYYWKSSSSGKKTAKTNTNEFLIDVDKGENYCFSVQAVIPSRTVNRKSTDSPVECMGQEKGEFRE
Procedure: S-2288 (H-D-Ile-Pro-Arg-pNA.2HCl) (manufactured by Chromogenix) was added as the substrate at a final concentration of 300 μmol/L. After progression of the reaction, the absorbance was measured at OD 405 nm.

Human FIXαβ = biological target: T2, Human FIXαβ (Homo sapiens, UniProt P00740); assay: Enzyme selectivity evaluation test: FIXa; assay type: biochemical
T2 construct: 3) Factor IXa (FIXa); purchased Enzyme Research Laboratories
T2 sequence (P00740 227-461 limits assumed): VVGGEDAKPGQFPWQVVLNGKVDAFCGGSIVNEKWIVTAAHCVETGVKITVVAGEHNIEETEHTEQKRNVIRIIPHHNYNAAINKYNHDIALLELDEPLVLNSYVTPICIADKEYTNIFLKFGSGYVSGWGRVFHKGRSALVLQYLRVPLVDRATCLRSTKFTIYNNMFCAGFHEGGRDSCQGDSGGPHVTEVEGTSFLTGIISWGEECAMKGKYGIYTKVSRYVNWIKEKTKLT
T2 sequence (P00740 47-191 partner limits assumed): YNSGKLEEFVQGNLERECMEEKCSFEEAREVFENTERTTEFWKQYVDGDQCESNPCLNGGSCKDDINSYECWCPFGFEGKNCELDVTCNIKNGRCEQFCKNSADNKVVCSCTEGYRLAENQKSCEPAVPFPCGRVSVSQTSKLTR
Procedure: SPECTROZYME® FIXa (D-Leu-Ph′Gly-Arg-pNA.2AcOH) (manufactured by American Diagnostica Inc.) was added as the substrate at a final concentration of 800 μmol/L. After progression of the reaction, the absorbance was measured at OD 405 nm. Change in OD in case of no addition of the test compound was defined as 100%, and the concentration at which a rise in OD value was reduced by 50% was calculated as […]

Human t-PA = biological target: T3, Human t-PA (Homo sapiens, UniProt P00750); assay: Enzyme selectivity evaluation test: t-PA; assay type: biochemical
T3 construct: purchased Calbiochem
T3 sequence (P00750 36-562): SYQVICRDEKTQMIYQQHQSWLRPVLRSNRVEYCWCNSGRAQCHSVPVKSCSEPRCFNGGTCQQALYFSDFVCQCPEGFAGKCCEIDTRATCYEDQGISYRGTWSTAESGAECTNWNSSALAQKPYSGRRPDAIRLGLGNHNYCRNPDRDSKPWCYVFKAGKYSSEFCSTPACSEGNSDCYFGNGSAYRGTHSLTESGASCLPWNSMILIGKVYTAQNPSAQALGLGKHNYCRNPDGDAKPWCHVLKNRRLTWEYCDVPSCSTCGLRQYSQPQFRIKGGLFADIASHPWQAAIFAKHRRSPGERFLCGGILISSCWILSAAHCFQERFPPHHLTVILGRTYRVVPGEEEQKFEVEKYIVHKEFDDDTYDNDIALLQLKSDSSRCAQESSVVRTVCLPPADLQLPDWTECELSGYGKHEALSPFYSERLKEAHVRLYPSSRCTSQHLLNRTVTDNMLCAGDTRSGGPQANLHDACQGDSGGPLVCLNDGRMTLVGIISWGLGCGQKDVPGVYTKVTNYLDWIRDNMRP
Procedure: (§2) S-2288 (H-D-Ile-Pro-Arg-pNA.2HCl) was added as the substrate at a final concentration of 300 μmol/L. After progression of the reaction, the absorbance was measured at OD 405 nm.

Human tryptase = assay: Enzyme selectivity evaluation test: tryptase; assay type: biochemical
Procedure: as §2

[2] = tested on: Rabbit venous thrombus models; assay: Effect of combined use with antiplatelet drug using rabbit AVST model; assay type: in vivo; conditions: alone
Procedure: Rabbit venous thrombus models were prepared by a modification of the report of Wong et al. (Wong P C. et al., J. Pharmacol. Exp. Ther. 292: 351-357 (2000)). […] A tracheostomy tube was inserted to each rabbit, which was then ventilated using a respirator. For the intravenous administration of a test drug and blood collection, catheters were inserted to the right femoral vein and the right femoral artery, respectively. An arteriovenous shunt filled with saline was inserted to the carotid artery and the jugular vein. […] Also, 4-0 silk thread having a length of 5 cm was indwelled in the arteriovenous shunt. Blood was sent for 30 minutes from the carotid artery to the jugular vein via the arteriovenous shunt. The shunt was removed, and the weight of the silk thread covered with thrombus was measured. The weight of the silk thread measured before the experiment was subtracted from the measured weight, and the obtained value was used as a wet thrombus weight. One hour before the open of the arteriovenous shunt, the test drug or a vehicle was promptly intravenously administered (0.67 mL/kg) and then continuously intravenously administered (1 mL/kg/hr). The continuous injection was continued throughout the experiment. […] STA calcium chloride (manufactured by Roche Diagnostics K.K.) was added in an amount equal thereto, and the time required for coagulation was measured.

[3] = dose 0.5 + 0.75 mg/kg + mg/kg/h i.v.
[4] = dose 1.5 + 2.25 mg/kg + mg/kg/h i.v.

For Cl.N[C@H](CF)[C@H]1CC[C@H](C(=O)N2CC[C@@H](C3CCCCC3)[C@H]2C(=O)Nc2ccc3[nH]c(C(=O)O)cc3c2)CC1 [Reference Example 2-6, 5-{[(3S)-1-({trans-4-[(1S)-1-Amino-2-fluoroethyl]cyclohexyl}carbonyl)-3-cyclohexyl-L-prolyl]amino}-1H-indole-2-carboxylic acid hydrochloride], the “EC2x (concentration at which the coagulation time was prolonged two times)” value (“EC2x” for short) (Cynomolgus monkey plasma) was 2.6 µM, the “EC2x” value (Dog plasma) was 34.4 µM and the “EC2x” value (Mouse plasma) was over 200 µM. The “EC2x” value (Rabbit plasma) was 34.2 µM, the “EC2x” value (Rat plasma) was over 200 µM and the “EC2x” value (human plasma) was 0.6 µM. It also gave an IC50 [1] of over 10 µM, an IC50 (Human FIXαβ) of over 10 µM and an IC50 (Human t-PA) of over 10 µM. The IC50 (Human tryptase) was over 10 µM, the “PT (ratio)” value [2, 3] was 1.00 ± 0.02 ratio and the Thrombus weight [2, 3] was 66 ± 22 mg. For the same compound, the “aPTT (ratio)” value [2, 3] was 1.59 ± 0.15 ratio, the “PT (ratio)” value [2, 4] was 1.01 ± 0.00 ratio and the Thrombus weight [2, 4] was 36 ± 6 mg. The “aPTT (ratio)” value [2, 4] was 1.84 ± 0.10 ratio.
